Experimental data reported in publication PMC9968717, “Breakthrough: a first-in-class virtual simulator for dose optimization of ACE inhibitors in translational cardiovascular medicine” (Scientific Reports, 2023).
Where a name gives a salt, the structure may show the parent alone.

Key:
[1] = NLME/QSP model fit of plasma benazeprilat pharmacokinetics after oral benazepril; assay type: in vivo, dogs (beagles); conditions: beagle, dog, population estimate, beagles, read-out: Clearance rate of benazeprilat (ClI), fixed effect (converted)
Description: The PK portion of the base model was a conventional 2-compartment mammillary model with saturable exchange between the central and peripheral compartments. Building on this initial model, several modifications of the PK structure were evaluated. First, several standard compartment variations were tested i.e., using 1-, 2-, or 3-compartment disposition functions. Overall, a 2-compartment PK model outperformed the other candidate models based on the precision of individual parameters and overall quality of fit. Second, non-specific (low affinity, high capacity) binding of benazeprilat to plasma proteins was represented by a 3rd compartment within the central compartment, i.e., representing the free circulation of benazeprilat. The volume of the non-specific binding compartment (Vns) is a representation of the relative binding capacity of benazeprilat which is distributed in plasma but is not freely circulating or interacting with ACE. […] As is typical, quantity of benazeprilat passed between compartments is called Im, n, for inhibitor, where indexes m and n represent origin and destination compartments, respectively. […] Doses are administered in benazepril hcl, but are measured as the metabolite-benazeprilat. […] Dogs were sampled in the same order at each time point and exact time of sampling was recorded. […] The benazepril dose was calculated to the nearest 1.25 mg increment. […]

ACE = molecular target: T1, ACE (Canis lupus familiaris, UniProt A0A8I3S3I6); test: Michaelis–Menten model of ACE inhibition by benazeprilat within the QSP model fit; assay type: in vivo, dogs (beagles); conditions: population estimate, beagles
T1 construct: from tissue; host or cells: living healthy beagle dogs; ACE in free circulation (plasma) and in tissue
T1 sequence (A0A8I3S3I6 31-1241): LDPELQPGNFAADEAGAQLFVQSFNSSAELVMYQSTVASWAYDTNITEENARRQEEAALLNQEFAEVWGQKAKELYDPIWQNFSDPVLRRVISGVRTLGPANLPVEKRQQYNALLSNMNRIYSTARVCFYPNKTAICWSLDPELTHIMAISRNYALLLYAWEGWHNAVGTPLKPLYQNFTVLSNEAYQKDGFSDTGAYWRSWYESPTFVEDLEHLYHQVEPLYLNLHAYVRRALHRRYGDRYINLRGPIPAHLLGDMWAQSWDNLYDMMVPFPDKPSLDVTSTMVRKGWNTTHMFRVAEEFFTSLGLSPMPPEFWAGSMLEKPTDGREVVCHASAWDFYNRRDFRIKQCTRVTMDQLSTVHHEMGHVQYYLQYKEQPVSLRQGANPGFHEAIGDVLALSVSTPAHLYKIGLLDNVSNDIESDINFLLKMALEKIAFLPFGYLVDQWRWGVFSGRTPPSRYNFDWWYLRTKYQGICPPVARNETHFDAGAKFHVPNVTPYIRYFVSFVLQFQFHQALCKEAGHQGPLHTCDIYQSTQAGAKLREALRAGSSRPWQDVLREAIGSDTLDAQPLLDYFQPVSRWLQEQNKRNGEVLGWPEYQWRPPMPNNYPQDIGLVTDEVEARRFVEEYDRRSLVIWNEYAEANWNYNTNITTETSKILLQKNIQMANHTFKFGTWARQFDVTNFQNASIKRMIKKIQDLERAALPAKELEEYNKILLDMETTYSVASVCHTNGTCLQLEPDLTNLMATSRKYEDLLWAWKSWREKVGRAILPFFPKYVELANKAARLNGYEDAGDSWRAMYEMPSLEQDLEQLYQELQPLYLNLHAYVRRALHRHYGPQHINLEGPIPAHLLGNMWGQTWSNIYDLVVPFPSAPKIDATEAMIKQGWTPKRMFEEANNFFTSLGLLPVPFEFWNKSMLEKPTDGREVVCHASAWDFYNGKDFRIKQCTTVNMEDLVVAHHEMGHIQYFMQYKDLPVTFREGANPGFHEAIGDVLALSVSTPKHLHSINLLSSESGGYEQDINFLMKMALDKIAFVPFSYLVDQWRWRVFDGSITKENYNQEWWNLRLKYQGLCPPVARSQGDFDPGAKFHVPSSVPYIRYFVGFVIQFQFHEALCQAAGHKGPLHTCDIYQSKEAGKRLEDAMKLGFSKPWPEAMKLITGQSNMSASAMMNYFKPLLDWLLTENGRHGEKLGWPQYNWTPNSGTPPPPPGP
From the text: Benazeprilat primary mechanism of action is inhibiting ACE to prevent the catalysis of AngI into AngII. To account for this mechanism, a logistic saturation model was first implemented. […] The distribution of ACE across tissue (ts) and free circulation (fr) was also considered. The nomenclature used throughout Eq. (3) is consistent with previous descriptions of the Michaelis–Menten model[26].3 E˙fr=-k-1·Efr·Sfr+k1·ESfr-k-3·Efr·Ifr+k3·EIfr+k2·ESfrE˙Sfr=k-1·Efr·Sfr-k1·ESfr-k2·ESfrE˙Ifr=k-3·Efr·Ifr-k3·EIfrE˙ts=-k-1·Ets·Sts+k1·ESts-k-3·Ets·Its+k3·EIts+k2·EStsE˙Sts=k-1·Ets·Sts-k1·ESts-k2·EStsE˙Its=k-3·Ets·Its-k3·EIts
Figure 3 Detailed model diagram. Detailed diagram of the final model structure. […] A Michaelis–Menten kinetic model of inhibitor, substrate, and enzyme interaction was used to describe the competitive inhibition of ACE by benazeprilat. k3 and k-3 were the parameters governing ACE-benazeprilat (enzyme-inhibitor) association and dissociation, while k1 and k-1 determined the rate of ACE-angiotensin (enzyme–substrate) association and dissociation. k2 controlled the production rate of angiotensin II from angiotensin I via ACE. […]
The recorded data (yij) were imported into Monolix […] (Lixoft, France) and used to estimate population parameters (μ) and variance via the stochastic approximation expectation maximization algorithm (SAEM)[46]. […]

ACE activity = conditions: dogs, cited from earlier work; for Duration of ACE suppression: single dose 0.5 mg/kg
[2] = Animal safety monitoring of study dogs given oral benazepril; assay type: in vivo; conditions: healthy beagles; benazepril PO 0.125 mg/kg q12h, 0.25 mg/kg q12h, 0.5 mg/kg q24h (crossover)
From the text: All study dogs received all oral doses of benazepril as intended. Dogs were monitored for adverse effects associated with benazepril labeling as well those associated with general animal welfare e.g., vomiting, diarrhea, inappetence, weakness/hypotension, fatigue, incoordination, hypercreatininemia.
Nine purpose-bred laboratory beagles (5 castrated males and 4 spayed females), 40–42 months old, weighing 9.0–13.5 kg were randomized based on body weight and sex into three oral dosing groups of benazepril. Systemic and cardiovascular health of all dogs was confirmed prior to the study with physical examination, routine laboratory screening (complete blood count, serum biochemical analysis), blood pressure measurement, and echocardiography.
This 35-day prospective study was divided into three periods with three different benazepril dosing groups: (A) 0.125 mg/kg q12hr PO, (B) 0.25 mg/kg q12hr PO, and (C) 0.5 mg/kg q24hr PO. All dogs received all treatments using a […] crossover (ABC/BCA/CAB) design. Dogs were sampled in the same order at each time point and exact time of sampling was recorded. […]
Venous blood samples were collected from an external jugular or cephalic vein with a 1 inch, 20-gauge or 22-gauge needle attached to a 6 mL syringe. […] Samples for complete blood counts or serum chemistry panels were analyzed by the Iowa State Clinical Pathology Laboratory.

[3] = dog, in vivo; cited from earlier work
[4] = single PO dose, ref 2 (b6), ref 17 King et al.

Structure (SMILES)	clearance [1]	Rate of ACE-benazeprilat dissociation in vivo, scaled (k3s), fixed effect (ACE)	Duration of ACE suppression (ACE activity)	Dosage from which ACE inhibition in plasma was independent of dosage (ACE activity; [4])	Duration of suppression of ACE activity (ACE activity; [4])	Adverse effects [2]	Serial complete blood counts and chemistry panels: hematologic or biochemical abnormalities [2]	Dose up to which safety has been established [3]
O=C(O)CN1C(=O)[C@@H](N[C@@H](CCc2ccccc2)C(=O)O)CCc2ccccc21 [benazeprilat]	455 mL/min	7.0 s⁻¹	–	–	–	–	–	–
CCOC(=O)[C@H](CCc1ccccc1)N[C@@H](C)C(=O)N1CCC[C@H]1C(=O)O [enalapril]	–	–	< 12 h	–	–	–	–	–
CCOC(=O)[C@H](CCc1ccccc1)N[C@H]1CCc2ccccc2N(CC(=O)O)C1=O [benazepril, Benazepril hydrochloride]	–	–	< 12 h	≥ 0.25 mg/kg	up to 24 h	No adverse effects were observed	no evidence of hematologic or biochemical abnormalities	up to 1 mg/kg q24h
